Experimental findings from patent US20170290871A1, “METHOD OF TREATING HYPERTENSION” (KING SAUD UNIVERSITY, priority 2016, published 2017) are described below.

Type in all cases: in vivo, Sprague-Dawley rats
The subject of data set [1] is hypertension induced rats. The experiment in a line: Blood pressure and heart rate of salt-sucrose hypertension induced rats. The conditions noted are these: captopril 20 mg/kg daily for three weeks, mean ± SD of 6. As for the experimental part:
(§1) Male Sprague-Dawley rats were divided into nine groups of six rats each and treated daily for three consecutive weeks. High salt-sucrose solution was given to the rats to induce hypertension in them. […] At the end of the experimental period, arterial blood pressure and heart rate of all rats were recorded. The rats were sacrificed by decapitation and the free running blood was collected for analysis. The systolic blood pressure (SBP), the diastolic blood pressure (DBP) and the heart rate (HR) of the rats were measured by the tail cuff every day during the entire period of study in control, drug and extract treated animals.

The subject of data set [2] is hypertension induced rats. The experiment in a line: Serum marker enzymes (AST, ALT, ALP) of hypertension induced rats. How it is done:
as §1, with “animals. For the estimation of alanine transaminase (ALT), aspartate transaminase (AST), alkaline phosphatase (ALP), total cholesterol, triglycerides, low-density lipoprotein (LDL) and high density lipoprotein (HDL), blood samples were collected in clot activator gel tubes. The serum was separated by centrifuging the blood samples at 5000 rpm for 10 minutes. Serum biochemical parameters were then measured by using commercially available reagent kits.” for “animals.”

Data set [3] has as its system hypertension induced rats. Briefly: Plasma lipid profile of hypertension induced rats. The note with it: captopril 20 mg/kg daily for three weeks, mean ± SD of 6. As for the experimental part: as §1, with “animals. For the estimation of alanine transaminase (ALT), aspartate transaminase (AST), alkaline phosphatase (ALP), total cholesterol, triglycerides, low-density lipoprotein (LDL) and high density lipoprotein (HDL), blood samples were collected in clot activator gel tubes. The serum was separated by centrifuging the blood samples at 5000 rpm for 10 minutes. Serum biochemical parameters were then measured by using commercially available reagent kits.” for “animals.”

Data set [4] concerns hypertension induced rats. The experiment in a line: GSH and SOD in tissue homogenates (liver, heart, kidney) of hypertension induced rats. As for the experimental part:
as §1, with “animals. After collecting the blood samples from the rats, their abdominal cavity was opened; heart, liver and kidney were dissected out and homogenized in Tris-HCl buffer solution to make a 20% homogenate. Glutathione (GSH) and superoxide dismutase (SOD) were determined using the method described by Ellman & Misra for assessing the oxidative damage parameters in some organs.” for “animals.”

Setting [5] is: serum, captopril 20 mg/kg daily for three weeks, mean ± SD of 6.
[6] abbreviates: heart homogenate, captopril 20 mg/kg, mean ± SD of 6.
Where [7] appears, read: kidney homogenate, captopril 20 mg/kg, mean ± SD of 6.
Setting [8] is: liver homogenate, captopril 20 mg/kg, mean ± SD of 6.

Consider `C[C@H](CS)C(=O)N1CCC[C@H]1C(=O)O` [Captopril, captopril], for which, in data set [1], the “Diastolic BP” value was 95.56 ± 10.5a* mm Hg, the Heart rate is reported as 328.86 ± 36.14a* beats/min and the “Systolic BP” value was 121.45 ± 10.9a* mm Hg. Also, the “levels of AST, ALT, ALP and lipid profile, in words” value in data set [2] is “brought back significantly to near normal”. Moreover, in data set [2] (setting [5]), the ALP is reported as 132.12 ± 17.41a* IU/L, the ALT is 85.44 ± 10.33a* IU/L and the AST turned out to be 45.03 ± 5.44a* IU/L. Moreover, in data set [3], the CHOLESTEROL is 135.42 ± 13.41a* mg/dL, the HDL came to 41.46 ± 4.55a* mg/dL, the LDL is given as 89.23 ± 9.8a* mg/dL and the TRIGLYCERIDES was found to be 106.41 ± 9.52a* mg/dL. In data set [4] (setting [6]), the “Heart GSH” value is 38.78 ± 4.69a^ mM/L and the “Heart SOD” value was found to be 68.92 ± 9.08a^@ U/mg. For the same compound, in data set [4] (setting [7]), the “Kidney GSH” value was found to be 31.04 ± 2.78a^@ mM/L and the “Kidney SOD” value amounted to 67.96 ± 6.08a^@ U/mg. In data set [4] (setting [8]), the “Liver GSH” value came out at 28.92 ± 4.12a^ mM/L and the “Liver SOD” value is 42.67 ± 5.62a^ U/mg. Also, the “levels of enzymic antioxidants, in words” value in data set [4] (tissue homogenates) was “retained to near normal values significantly”.
